Results from ChEMBL document CHEMBL1136755, “Mapping property distributions of molecular surfaces: algorithm and evaluation of a novel 3D quantitative structure-activity relationship technique” (J Med Chem, 2003).
pEC50: −log10 of the molar value.

Target: T1, Muscarinic acetylcholine receptor M2 (Sus scrofa, UniProt P06199)
T1 sequence (P06199 whole entry): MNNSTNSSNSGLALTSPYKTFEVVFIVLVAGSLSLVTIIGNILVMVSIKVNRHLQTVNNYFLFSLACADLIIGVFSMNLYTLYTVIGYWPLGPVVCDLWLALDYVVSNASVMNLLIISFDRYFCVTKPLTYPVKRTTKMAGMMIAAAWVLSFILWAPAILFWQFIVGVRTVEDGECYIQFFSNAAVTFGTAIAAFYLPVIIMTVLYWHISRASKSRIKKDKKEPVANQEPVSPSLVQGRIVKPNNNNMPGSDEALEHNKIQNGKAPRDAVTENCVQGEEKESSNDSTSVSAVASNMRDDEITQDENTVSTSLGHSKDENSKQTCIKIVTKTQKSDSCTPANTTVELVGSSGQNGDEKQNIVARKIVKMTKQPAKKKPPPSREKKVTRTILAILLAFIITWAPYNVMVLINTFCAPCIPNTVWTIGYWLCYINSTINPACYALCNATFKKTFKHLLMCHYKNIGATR
Experiment: Ability to dissociate radioligand [3H]NMS from muscarinic acetylcholine receptor M2 of porcine heart

Point of comparison: C[N+](C)(CCCCCC[N+](C)(C)CCCN1C(=O)c2cc3ccccc3cc2C1=O)CCCN1C(=O)c2ccccc2C1=O, pEC50 6.83. Against it:
- C[N+](C)(CCCCCCC[N+](C)(C)CCCN1C(=O)[C@H]2CC=CC[C@H]2C1=O)CCCN1C(=O)[C@H]2CC=CC[C@H]2C1=O — 1.17 log units lower, 5.66
- C[N+](C)(CCCCCC[N+](C)(C)CCCN1C(=O)CC2c3ccccc3C(C1=O)c1ccccc12)CCCN1C(=O)c2ccccc2C1=O — 0.43 log units lower, 6.40
- C[N+](C)(CCCCCC[N+](C)(C)CCCN1C(=O)c2cccnc2C1=O)CCCN1C(=O)c2ccccc2C1=O — 1.20 log units lower, 5.63
- N#CCCN(CCCCCCN(CCC#N)CCCN1C(=O)c2ccccc2C1=O)CCCN1C(=O)c2ccccc2C1=O — 0.70 log units lower, 6.13
- C[N+](C)(CCCCCCC[N+](C)(C)CCCN1C(=O)[C@@H]2CCCC[C@H]2C1=O)CCCN1C(=O)[C@H]2CCCC[C@@H]2C1=O — 0.73 log units lower, 6.10
- C[N+](C)(CCCCCC[N+](C)(C)CCCN1C(=O)c2ccccc2C1=O)CCCN1C(=O)CCC1=O — 1.82 log units lower, 5.01
- C[N+](C)(CCCCCCC[N+](C)(C)CCCN1C(=O)CCC1=O)CCCN1C(=O)CCC1=O — 3.01 log units lower, 3.82
- C[N+](C)(CCCCCC[N+](C)(C)CCCN1C(=O)c2cccc3cccc(c23)C1=O)CCCN1C(=O)c2ccccc2C1=O — 0.37 log units higher, 7.20
- CCOC(=O)CCCCCC[N+](C)(C)CCCN1C(=O)c2ccccc2C1=O — 2.87 log units lower, 3.96
- O=C1c2ccccc2C(=O)N1CCCN(CCCCCCN(CCCN1C(=O)c2ccccc2C1=O)C1CCCCC1)C1CCCCC1 — 0.52 log units higher, 7.35
- CC1CC(=O)N(CCC[N+](C)(C)CCCCCCC[N+](C)(C)CCCN2C(=O)CC(C)C2=O)C1=O (stereo not given) — 2.33 log units lower, 4.50
- Cc1ccc2c(c1)C(=O)N(CCCN(CCCCCCN(CCCN1C(=O)c3ccc(C)cc3C1=O)C1CCCCC1)C1CCCCC1)C2=O — 0.39 log units higher, 7.22
- COc1ccc(CCN(C)CCCC(C#N)(c2ccc(OC)c(OC)c2)C(C)C)cc1OC (stereo not given) — 2.32 log units lower, 4.51
- C[N+](C)(CCCCCCC[N+](C)(C)CCCN1C(=O)[C@H]2CCCC[C@H]2C1=O)CCCN1C(=O)[C@H]2CCCC[C@H]2C1=O — 1.48 log units lower, 5.35
- C[N+](C)(CCCCCC[N+](C)(C)CCCN1c2ccccc2C(=O)NC1c1ccccc1)CCCN1c2ccccc2C(=O)NC1c1ccccc1 (stereo not given) — 0.70 log units lower, 6.13
- C[N+](C)(CCCCCCO)CCCN1C(=O)c2ccccc2C1=O — 2.21 log units lower, 4.62
- C[N+](C)(CCCCCCC[N+](C)(C)CCCN1C(=O)c2ccccc2C1=O)CCCN1C(=O)c2ccccc2C1=O — 0.42 log units lower, 6.41
- CC[N+](C)(C)CCCCCC[N+](C)(C)CCCN1C(=O)c2ccccc2C1=O — 1.83 log units lower, 5.00
- CCCCCC[N+](C)(C)CCCN1C(=O)c2ccccc2C1=O — 2.56 log units lower, 4.27
- O=C1c2ccccc2C(=O)N1CCCN(CCCCCCN(CCCc1ccccc1)CCCN1C(=O)c2ccccc2C1=O)CCCc1ccccc1 — 0.83 log units lower, 6.00
- C[C@@H]1C(=O)N(CCC[N+](C)(C)CCCCCCC[N+](C)(C)CCCN2C(=O)[C@H](C)[C@@H](C)C2=O)C(=O)[C@H]1C — 1.91 log units lower, 4.92

System: Oryctolagus cuniculus
Experiment: Eye irritation potential accessed using Draize in vivo rabbit eye irritation test
Assay type: functional

Point of comparison: CC(C)=O [ACETONE], MES 4.83. Against it:
- O=[N+]([O-])c1ccc(F)cc1F — lower, 0.4
- C1=C\CCCCCC/1 [CYCLOOCTENE] — lower, 0.43
- CCCCCC(C)=O — lower, 2.26
- C=CCCC=C — lower, 0.55
- CC(C)CO [ISOBUTANOL] — higher, 6.44
- CC(O)CO (stereo not given) [PROPYLENE GLYCOL] — lower, 0.1
- CCC(C)=O [BUTANONE] — lower, 4.48
- Cc1ccc(C)cc1 [P-XYLENE] — lower, 1.1
- CCCCO [BUTYL ALCOHOL] — higher, 5.47
- CCc1cccc(C)c1 — lower, 0.32
- CCCC(C)C — lower, 0.26
- CCCCCCCCCCCC [DODECANE] — lower, 0.45
- CC(C)O [ISOPROPYL ALCOHOL] — lower, 2.34
- CC1CCCC1 [METHYLCYCLOPENTANE] — lower, 0.41
- CCCCOCCO [BUTOXYETHANOL] — higher, 8.99
- Nc1ccc(F)cc1 — higher, 6.62
- C/C1=C/C=C\C(C)CCC1 (stereo not given) — lower, 0.44
- CCOCC(=O)O — lower, 2.03
- O=C1c2ccccc2C(=O)N1CCCCBr — lower, 0.19
- CCCC(C)CC (stereo not given) — lower, 0.1
- CCOC(=O)C(C)(C)C — lower, 0.63
- OCC(O)CO [GLYCERIN] — lower, 0.12
- C=CCCCCCCC=C — lower, 0.37
- Cc1ccccc1 [TOLUENE] — lower, 0.96
- CCOC(=O)C(C)C(C)=O (stereo not given) — lower, 2.55
- CCC(C)(C)C(=O)O [DIMEBUTIC ACID] — higher, 5.59
- CC(C)c1cccc(C(C)C)c1 — lower, 0.38
- CCC(C)c1ccccc1 (stereo not given) — lower, 0.31
- CCCCC(CC)CO (stereo not given) — higher, 7.82
- OC1CCCCC1 [CYCLOHEXANOL] — higher, 8.29
- COC(C)=O [ACETIC ACID METHYL ESTER] — lower, 3.14
- CCOC(C)=O [ETHYL ACETATE] — lower, 1.47
- CCCCCCO [1-HEXANOL] — higher, 8.13
- COC(=O)C(C)(C)C — lower, 0.36
- CC(=O)CC(C)C [METHYL ISOBUTYL KETONE] — lower, 0.59
- C=Cc1ccccc1 [STYRENE] — lower, 0.77
- CCCCOC(C)=O [ACETIC ACID BUTYL ESTER] — lower, 0.99

Target: T2, Corticosteroid-binding globulin (Homo sapiens) (UniProt P08185)
T2 sequence (whole entry): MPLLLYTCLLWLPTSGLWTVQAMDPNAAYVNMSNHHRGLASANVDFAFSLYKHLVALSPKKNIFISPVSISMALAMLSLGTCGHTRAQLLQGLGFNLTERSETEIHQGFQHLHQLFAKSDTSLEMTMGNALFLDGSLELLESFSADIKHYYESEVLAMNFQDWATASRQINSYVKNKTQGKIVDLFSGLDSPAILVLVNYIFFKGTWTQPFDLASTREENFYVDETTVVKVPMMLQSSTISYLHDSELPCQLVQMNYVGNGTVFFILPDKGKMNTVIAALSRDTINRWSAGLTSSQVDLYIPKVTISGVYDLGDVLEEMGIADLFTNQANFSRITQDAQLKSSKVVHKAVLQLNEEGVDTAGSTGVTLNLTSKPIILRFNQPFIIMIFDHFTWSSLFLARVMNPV
Description: Binding affinity towards corticosteroid-binding globulin (CBG)

Point of comparison: C[C@]12CC[C@H]3[C@@H](CCC4=CC(=O)CC[C@@H]43)[C@@H]1CC[C@@H]2O, Log K 6.14. Against it:
- C[C@]12CC[C@H]3[C@@H](CCC4=CC(=O)CC[C@@]43C)[C@@H]1CC[C@@H]2O — higher, 6.72
- CC(=O)[C@@]1(O)[C@H](O)C[C@H]2[C@@H]3CCC4=CC(=O)CC[C@]4(C)[C@H]3CC[C@@]21C — within 0.2 log units, 6.25
- CC(=O)OCC(=O)[C@@]1(O)CC[C@H]2[C@@H]3CCC4=CC(=O)CC[C@]4(C)[C@H]3[C@@H](O)C[C@@]21C — higher, 7.55
- CC(=O)[C@H]1CC[C@H]2[C@@H]3CC=C4C[C@@H](O)CC[C@]4(C)[C@H]3CC[C@]12C — lower, 5.25
- C[C@]12CCC(=O)C=C1CC[C@@H]1[C@@H]2CC[C@@]2(C)[C@H]1CC[C@]2(O)C(=O)CO — higher, 7.88
- C[C@]12CC[C@H](O)CC1=CC[C@@H]1[C@@H]2CC[C@]2(C)C(=O)CC[C@@H]12 — lower, 5
- C[C@]12CC[C@@H]3c4ccc(O)cc4CC[C@H]3[C@@H]1CC[C@@H]2O — lower, 5
- CC(=O)[C@H]1CC[C@H]2[C@@H]3CCC4=CC(=O)CC[C@]4(C)[C@H]3C(=O)C[C@]12C — higher, 6.78
- C[C@]12C=CC(=O)C=C1CC[C@@H]1[C@@H]2[C@@H](O)C[C@@]2(C)[C@H]1CC[C@]2(O)C(=O)CO — higher, 7.51
- C[C@@H]1C[C@@]2(C)C(=CC1=O)CC[C@H]1[C@@H]3CC[C@](O)(C(=O)CO)[C@@]3(C)C[C@H](O)[C@@]12F — lower, 5.8
- C[C@]12CC[C@H]3[C@@H](CCC4=CC(=O)CC[C@@]43C)[C@@H]1CC[C@@H]2C(=O)CO — higher, 7.65
- C[C@]12C[C@@H](O)[C@H]3[C@@H](CCC4=CC(=O)CC[C@@]43C)[C@@H]1CC[C@@H]2C(=O)CO — higher, 7.2
- CC(=O)[C@@]1(O)CC[C@H]2[C@@H]3CC[C@@H]4C[C@H](O)CC[C@]4(C)[C@H]3CC[C@@]21C — lower, 5
- C[C@]12CCC(=O)C=C1CC[C@@H]1[C@@H]2CC[C@]2(C)C(=O)CC[C@@H]12 — lower, 5.76
- CC(=O)[C@H]1CC[C@H]2[C@@H]3CCC4=CC(=O)CC[C@@H]4[C@H]3CC[C@]12C — higher, 6.82
- C[C@]12CC[C@@H]3c4ccc(O)cc4CC[C@H]3[C@@H]1C[C@@H](O)[C@@H]2O — lower, 5
- CC(=O)[C@H]1[C@H](C)C[C@H]2[C@@H]3CCC4=CC(=O)CC[C@]4(C)[C@H]3CC[C@@]21C — higher, 7.12
- CC(=O)[C@@]1(O)CC[C@H]2[C@@H]3CCC4=CC(=O)CC[C@]4(C)[C@H]3CC[C@@]21C — higher, 7.74
- C[C@]12C[C@H](O)[C@H]3[C@@H](CCC4=CC(=O)CC[C@@]43C)[C@@H]1CC[C@@H]2C(=O)CO — higher, 7.88
- CC(=O)[C@H]1CC[C@H]2[C@@H]3CCC4=CC(=O)CC[C@]4(C)[C@H]3CC[C@]12C — higher, 7.38
- C[C@]12CCC(=O)C=C1CC[C@@H]1[C@@H]2C(=O)C[C@@]2(C)[C@H]1CC[C@]2(O)C(=O)CO — higher, 6.89
- C[C@]12CC[C@H](O)C[C@@H]1CC[C@@H]1[C@@H]2CC[C@]2(C)[C@@H](O)CC[C@@H]12 — lower, 5
- C[C@]12CCC(=O)C=C1CC[C@@H]1[C@@H]2[C@@H](O)C[C@@]2(C)[C@H]1CC[C@]2(O)C(=O)CO — higher, 7.88

Target: T2, Corticosteroid-binding globulin (Homo sapiens)
Remark: another data set of the same source
Description: Binding affinity towards corticosteroid binding globulin (CBG)

C[C@]12CCC(=O)C=C1CC[C@@H]1[C@@H]2[C@@H](O)C[C@]2(C=O)[C@@H](C(=O)CO)CC[C@@H]12 gave a Log K of 6.28.
